The values below come from patent publication US20110044938A1 (NYCOMED GMBH, priority 2006, published 2011).

Test [1] deals with RKO (RKOp27) human colon adenocarcinoma cells. The test can be described thus: Alamar Blue cell viability assay, anti-proliferative/cytotoxic activity on proliferating RKO subclones. It counts as cell-based. Particulars: RKOp27, 72 h, RKO p27 uninduced (proliferating) cells, value = class bound given in Table A, read-out: −logIC50 RKO p27 uninduced (proliferating) (converted). The essentials: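 Alamar Blue fluorescence (ex 544, em 590 nm) after 72 h compound exposure at 37 °C, 5% CO2, normalised to untreated controls set at 100%. Cells were seeded at 5000 per well and dosed 24 h later with serial semi-logarithmic dilutions in 10% FCS DMEM, four replicates each. −log IC50 [mol/l] was derived from concentration-effect curves.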
In general terms: The colour change of resazurin is a common sign of viable cells or microbes.

Test [2] concerns subclones of RKO colon adenocarcinoma cells (RKOp27 or RKOp21) arrested by Ponasterone A. The test can be described thus: Alamar Blue cell viability assay, cell cycle specific mode of action: cells arrested by ectopic p27Kip1 induced by Ponasterone A versus proliferating cells. It is filed as cell-based. Conditions: Homo sapiens, RKO p27 induced (arrested) cells, 10 μM Ponasterone A, 72 hours, value = class bound given in Table A, read-out: −logIC50 RKO p27 induced (arrested) (converted). The essentials:
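Viability of proliferating versus Ponasterone A (10 μM)-arrested RKOp27/RKOp21 cells after 72 h compound exposure at 37° C, in quadruplicate. Read-out is Alamar Blue fluorescence (544/590 nm) normalised to untreated cells = 100%; values as −log IC50.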

On to `COC(=O)[C@@H]1CCCN1C(=O)OC1CCc2c(sc(NC(=O)/C=C/c3cccnc3)c2C#N)C1` (stereo partly drawn) [Example 81, 2-(S)-Pyrrolidine-1,2-dicarboxylic acid 1-[3-cyano-2-((E)-3-pyridin-3-yl-allanoylamino)-4,5,6,7-tetrahydro-benzo[b]thiophen-6-yl] ester 2-methyl ester], for which the IC50 in test [1] is 501 to 2000 nM; in test [2], at least 100 µM.

On to `CCN(CC)C(=O)OCC1CCc2c(sc(NC(=O)/C=C/c3cccnc3)c2C#N)C1` (stereo not drawn) [Example 82, Diethyl-carbamic acid 3-cyano-2-((E)-3-pyridin-3-yl-allanoylamino)-4,5,6,7-tetrahydro-benzo[b]thiophen-6-ylmethyl ester], for which the IC50 in test [1] was at most 501 nM; in test [2] it was at least 100 µM.

As to `N#Cc1c(NC(=O)/C=C/c2cccnc2)sc2c1CCC(COC(=O)N1CCCCC1)C2` (stereo not drawn) [Example 83, Piperidine-1-carboxylic acid 3-cyano-2-((E)-3-pyridin-3-yl-allanoylamino)-4,5,6,7-tetrahydro-benzo[b]thiophen-6-ylmethyl ester], the IC50 in test [1] is at most 501 nM; in test [2], at least 100 µM.

`N#Cc1c(NC(=O)/C=C/c2cccnc2)sc2c1CCC(COC(=O)N1CCOCC1)C2` (stereo not drawn) [Example 84, Morpholine-4-carboxylic acid-3-cyano-2-((E)-3-pyridin-3-yl-allanoylamino)-4,5,6,7-tetrahydro-benzo[b]thiophen-6-ylmethyl ester]: the IC50 in test [1] was at most 501 nM; in test [2], at least 100 µM.

`CCN(C)C(=O)OCC1CCc2c(sc(NC(=O)/C=C/c3cccnc3)c2C#N)C1` (stereo not drawn) [Example 85, Ethyl-methyl-carbamic acid 3-cyano-2-((E)-3-pyridin-3-yl-allanoylamino)-4,5,6,7-tetrahydro-benzo[b]thiophen-6-ylmethyl ester]: the IC50 in test [1] was at most 501 nM; in test [2], at least 100 µM.

Turning to `N#Cc1c(NC(=O)/C=C/c2cccnc2)sc2c1CCC(COC(=O)N1CC=CC1)C2` (stereo not drawn) [Example 86, 2,5-Dihydro-pyrrole-1-carboxylic acid 3-cyano-2-((E)-3-pyridin-3-yl-allanoylamino)-4,5,6,7-tetrahydro-benzo[b]thiophen-6-ylmethyl ester], the IC50 is at most 501 nM in test [1] and at least 100 µM in test [2].

For the molecule `N#Cc1c(NC(=O)/C=C/c2cccnc2)sc2c1CCC(COC(=O)N1CCCC(O)C1)C2` (stereo not drawn) [Example 87, 3-Hydroxy-piperidine-1-carboxylic acid 3-cyano-2-((E)-3-pyridin-3-yl-allanoylamino)-4,5,6,7-tetrahydro-benzo[b]thiophen-6-ylmethyl ester], the IC50 in test [1] is at most 501 nM; in test [2], at least 100 µM.

For `N#Cc1c(NC(=O)/C=C/c2cccnc2)sc2c1CC[C@@H](COC(=O)N1CCC[C@@H](O)C1)C2` [Example 87a, (R)-3-Hydroxy-piperidine-1-carboxylic acid (R)-3-cyano-2-((E)-3-pyridin-3-yl-allanoylamino)-4,5,6,7-tetrahydro-benzo[b]thiophen-6-ylmethylester], the IC50 was at most 501 nM in test [1] and at least 100 µM in test [2].

With `N#Cc1c(NC(=O)/C=C/c2cccnc2)sc2c1CC[C@H](COC(=O)N1CCC[C@@H](O)C1)C2` [Example 87b, (R)-3-Hydroxy-piperidine-1-carboxylic acid (S)-3-cyano-2-((E)-3-pyridin-3-yl-allanoylamino)-4,5,6,7-tetrahydro-benzo[b]thiophen-6-ylmethyl ester], the figures for the IC50 in test [1] and in test [2] were at most 501 nM and at least 100 µM, respectively.

Take `N#Cc1c(NC(=O)/C=C/c2cccnc2)sc2c1CC[C@H](COC(=O)N1CCC[C@H](O)C1)C2` [Example 87c, (S)-3-Hydroxy-piperidine-1-carboxylic acid (S)-3-cyano-2-((E)-3-pyridin-3-yl-allanoylamino)-4,5,6,7-tetrahydro-benzo[b]thiophen-6-ylmethyl ester]: the IC50 was at most 501 nM in test [1] and at least 100 µM in test [2].

For `N#Cc1c(NC(=O)/C=C/c2cccnc2)sc2c1CC[C@@H](COC(=O)N1CCC[C@H](O)C1)C2` [Example 87d, (S)-3-Hydroxy-piperidine-1-carboxylic acid (R)-3-cyano-2-((E)-3-pyridin-3-yl-allanoylamino)-4,5,6,7-tetrahydro-benzo[b]thiophen-6-ylmethyl ester], the IC50 is at most 501 nM in test [1] and at least 100 µM in test [2].

On to `CC1CCCN1C(=O)OCC1CCc2c(sc(NC(=O)/C=C/c3cccnc3)c2C#N)C1` (stereo not drawn) [Example 88, 2-Methylpyrrolidine-1-carboxylic acid 3-cyano-2-((E)-3-pyridin-3-yl-allanoylamino)-4,5,6,7-tetrahydro-benzo[b]thiophen-6-ylmethyl ester], for which the IC50 in test [1] was at most 501 nM; in test [2] it was at least 100 µM.

In the case of `COCC1CCCN1C(=O)OCC1CCc2c(sc(NC(=O)/C=C/c3cccnc3)c2C#N)C1` (stereo not drawn) [Example 89, 2-(Methoxymethyl) pyrrolidine-1-carboxylic acid 3-cyano-2-((E)-3-pyridin-3-yl-allanoylamino)-4,5,6,7-tetrahydro-benzo[b]thiophen-6-ylmethyl ester], the IC50 was at most 501 nM in test [1] and at least 100 µM in test [2].

In the case of `COC[C@@H]1CCCN1C(=O)OCC1CCc2c(sc(NC(=O)/C=C/c3cccnc3)c2C#N)C1` (stereo partly drawn) [Example 90, 2-(S)-(Methoxymethyl) pyrrolidine-1-carboxylic acid 3-cyano-2-((E)-3-pyridin-3-yl-allanoylamino)-4,5,6,7-tetrahydro-benzo[b]thiophen-6-ylmethyl ester], the results for the IC50 in test [1] and in test [2] were at most 501 nM and at least 100 µM, respectively.

For `CCN(C)C(=O)OC1CCc2c(sc(NC(=O)/C=C/c3cccnc3)c2C#N)C1` (stereo not drawn) [Example 91, Ethyl-methyl-carbamic acid 3-cyano-2-((E)-3-pyridin-3-yl-allanoylamino)-4,5,6,7-tetrahydro-benzo[b]thiophen-6-yl ester], the IC50 in test [1] was at most 501 nM; in test [2], at least 100 µM.

Take `N#Cc1c(NC(=O)/C=C/c2cccnc2)sc2c1CCC(OC(=O)N1CC=CC1)C2` (stereo not drawn) [Example 92, 2,5-Dihydro-pyrrole-1-carboxylic acid 3-cyano-2-((E)-3-pyridin-3-yl-allanoylamino)-4,5,6,7-tetrahydro-benzo[b]thiophen-6-yl ester]: the IC50 in test [1] was at most 501 nM; in test [2], at least 100 µM.

For `CC1CCCN1C(=O)OC1CCc2c(sc(NC(=O)/C=C/c3cccnc3)c2C#N)C1` (stereo not drawn) [Example 93, 2-Methylpyrrolidine-1-carboxylic acid 3-cyano-2-((E)-3-pyridin-3-yl-allanoylamino)-4,5,6,7-tetrahydro-benzo[b]thiophen-6-yl ester], the results for the IC50 in test [1] and in test [2] were at most 501 nM and at least 100 µM, respectively.

With `Cc1cc(CNC(=O)OC2CCc3c(sc(NC(=O)/C=C/c4cccnc4)c3C#N)C2)on1` (stereo not drawn) [Example 94, (3-Methyl-isoxazol-5-ylmethyl)-carbamic acid 3-cyano-2-((E)-3-pyridin-3-yl-allanoylamino)-4,5,6,7-tetrahydro-benzo[b]thiophen-6-yl ester], the IC50 in test [1] was at most 501 nM; in test [2], at least 100 µM.

Regarding `Cc1cc(CNC(=O)OC2CCc3c(sc(NC(=O)/C=C/c4cccnc4)c3C#N)C2)n(C)n1` (stereo not drawn) [Example 95, (2,5-Dimethyl-2H-pyrazol-3-ylmethyl)-carbamic acid 3-cyano-2-((E)-3-pyridin-3-yl-allanoylamino)-4,5,6,7-tetrahydro-benzo[b]thiophen-6-yl ester], the IC50 in test [1] is at most 501 nM; in test [2] it was at least 100 µM.

For the molecule `N#Cc1c(NC(=O)/C=C/c2cccnc2)sc2c1CCC(OC(=O)N1CCC(O)CC1)C2` (stereo not drawn) [Example 96, 4-Hydroxy-piperidine-1-carboxylic acid 3-cyano-2-((E)-3-pyridin-3-yl-allanoylamino)-4,5,6,7-tetrahydro-benzo[b]thiophen-6-yl ester], the IC50 was at most 501 nM in test [1] and at least 100 µM in test [2].

As to `CC(C)N(C)C(=O)OCC1CCc2c(sc(NC(=O)/C=C/c3cccnc3)c2C#N)C1` (stereo not drawn) [Example 97, Isopropyl-methyl-carbamic acid 3-cyano-2-((E)-3-pyridin-3-yl-allanoylamino)-4,5,6,7-tetrahydro-benzo[b]thiophen-6-ylmethyl ester], the IC50 in test [1] is at most 501 nM; in test [2], at least 100 µM.

`N#Cc1c(NC(=O)/C=C/c2cccnc2)sc2c1CCC(COC(=O)NC1CCC1)C2` (stereo not drawn) [Example 98, Cyclobutyl-carbamic acid 3-cyano-2-((E)-3-pyridin-3-yl-allanoylamino)-4,5,6,7-tetrahydro-benzo[b]thiophen-6-ylmethyl ester]: the IC50 was at most 501 nM in test [1] and at least 100 µM in test [2].

`N#Cc1c(NC(=O)/C=C/c2cccnc2)sc2c1CCC(COC(=O)NC1CC1)C2` (stereo not drawn) [Example 99, Cyclopropyl-carbamic acid 3-cyano-2-((E)-3-pyridin-3-yl-allanoylamino)-4,5,6,7-tetrahydro-benzo[b]thiophen-6-ylmethyl ester]: the figures for the IC50 in test [1] and in test [2] were at most 501 nM and at least 100 µM, respectively.

As to `N#Cc1c(NC(=O)/C=C/c2cccnc2)sc2c1CCC(COC(=O)N[C@H]1CC[C@H](O)CC1)C2` (stereo partly drawn) [Example 100, trans-4-Hydroxycyclohexyl-carbamic acid 3-cyano-2-((E)-3-pyridin-3-yl-allanoylamino)-4,5,6,7-tetrahydro-benzo[b]thiophen-6-ylmethyl ester], the IC50 in test [1] is 501 to 2000 nM; in test [2] it was at least 100 µM.
